Results as given in patent US10131652B2, “Pyrimidinyloxy benzene derivatives as herbicides” (E. I. DU PONT DE NEMOURS AND COMPANY, priority 2014, dated 2018).

Tests used:
Assay type in all cases: in vivo
[1] = system: wheat (Triticum aestivum); assay: Test B pre-/postemergence plant response
Method in brief: (§1)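 Steps: plant seeds in loam soil–sand mix; spray soil preemergence, and in parallel spray 2–10 cm one- to two-leaf plants postemergence; hold ~10 days in greenhouse; visually rate injury against untreated controls (0 = no effect, 100 = complete control).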

[2] = system: pigweed (Amaranthus retroflexus); assay: Test B pre-/postemergence plant response
Method in brief: as §1

[3] = system: giant foxtail (Setaria faberii); assay: Test B pre-/postemergence plant response
Method in brief: as §1

[4] = system: barnyardgrass (Echinochloa crus-galli); assay: Test B pre-/postemergence plant response
Method in brief: as §1

corn (Zea mays) [5] = assay: Test B pre-/postemergence plant response
Method in brief: as §1

[6] = system: ragweed (common ragweed, Ambrosia elatior); assay: Test D pre-/postemergence plant response; conditions: Postemergence; for Plant response rating, Ragweed: scale 0 to 100, 0 no effect, 100 complete control
Method in brief: (§2)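 Ratings were visual, 0 = no effect to 100 = complete control, taken against untreated controls after 13 to 15 days in a greenhouse. Chemicals, formulated in non-phytotoxic surfactant-containing solvent, went onto soil (loam/sand) at planting for preemergence, or onto 1- to 4-leaf plants (2–18 cm) for postemergence.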

[7] = system: galium (catchweed bedstraw, Galium aparine); assay: Test D pre-/postemergence plant response; conditions: Postemergence; for Plant response rating, Galium: scale 0 to 100, 0 no effect, 100 complete control
Method in brief: as §2

[8] = system: yellow nutsedge (Cyperus esculentus); assay: Test D pre-/postemergence plant response; conditions: Postemergence; for Plant response rating, Nutsedge, Yellow: scale 0 to 100, 0 no effect, 100 complete control
Method in brief: as §2

[9] = system: Italian ryegrass (Lolium multiflorum); assay: Test D pre-/postemergence plant response; conditions: Postemergence; for Plant response rating, Ryegrass, Italian: scale 0 to 100, 0 no effect, 100 complete control
Method in brief: as §2

[10] = system: waterhemp (common waterhemp, Amaranthus rudis); assay: Test D pre-/postemergence plant response; conditions: Postemergence; for Plant response rating, Waterhemp: scale 0 to 100, 0 no effect, 100 complete control
Method in brief: as §2

[11] = system: morningglory (Ipomoea coccinea); assay: Test D pre-/postemergence plant response; conditions: Postemergence; for Plant response rating, Morningglory: scale 0 to 100, 0 no effect, 100 complete control
Method in brief: as §2

[12] = system: winter wheat (Triticum aestivum); assay: Test D pre-/postemergence plant response; conditions: Postemergence; for Plant response rating, Wheat: scale 0 to 100, 0 no effect, 100 complete control
Method in brief: as §2

corn (Zea mays) [13] = assay: Test D pre-/postemergence plant response; conditions: Postemergence; for Corn plant response rating: scale 0 to 100 (0 no effect, 100 complete control); for Plant response rating, Corn: scale 0 to 100, 0 no effect, 100 complete control
Method in brief: as §2

[14] = system: large (Lg) crabgrass (Digitaria sanguinalis); assay: Test D pre-/postemergence plant response; conditions: Postemergence; for Crabgrass, Large plant response rating: scale 0 to 100 (0 no effect, 100 complete control); for Plant response rating, Crabgrass, Large: scale 0 to 100, 0 no effect, 100 complete control
Method in brief: as §2

[15] = system: lambsquarters (Chenopodium album); assay: Test D pre-/postemergence plant response; conditions: Postemergence; for Plant response rating, Lambsquarters: scale 0 to 100, 0 no effect, 100 complete control
Method in brief: as §2

soybean (Glycine max) = assay: Test D pre-/postemergence plant response; conditions: Postemergence; for Plant response rating, Soybean: scale 0 to 100, 0 no effect, 100 complete control
Method in brief: as §2

[16] = 125 g ai/ha, postemergence, 0 to 100 scale, 0 no effect, 100 complete control
[17] = Postemergence, 31 g ai/ha, 0 to 100 scale (0 no effect, 100 complete control)
[18] = 31 g ai/ha, Preemergence, 0 to 100 scale where 0 is no effect and 100 is complete control
[19] = Preemergence, 125 g ai/ha, 0 to 100 scale (0 no effect, 100 complete control)
[20] = 31 g ai/ha, scale 0 to 100 (0 no effect, 100 complete control)

Compound: FC(F)(Br)c1cc(-c2ccccc2Oc2ncc(Cl)cn2)no1 [Compound 162]
- Plant response rating, Wheat [1, 16]: 30
- Plant response rating, Wheat [1, 17]: 20
- Plant response rating, Pigweed [2, 18]: 80
- Plant response rating, Pigweed [2, 16]: 100
- Plant response rating, Pigweed [2, 17]: 100
- Pigweed plant response rating [2, 19]: 100
- Plant response rating, Foxtail, Giant [3, 18]: 90
- Plant response rating, Foxtail, Giant [3, 16]: 90
- Plant response rating, Foxtail, Giant [3, 17]: 10
- Foxtail, Giant plant response rating [3, 19]: 100
- Plant response rating, Barnyardgrass [4, 18]: 20
- Plant response rating, Barnyardgrass [4, 16]: 90
- Plant response rating, Barnyardgrass [4, 17]: 10
- Barnyardgrass plant response rating [4, 19]: 100
- Plant response rating, Corn (corn (Zea mays) [5]; [16]): 40
- Plant response rating, Corn (corn (Zea mays) [5]; [17]): 20
- Ragweed plant response rating [6, 20]: 30
- Plant response rating, Ragweed ([6]; 62 g ai/ha): 40
- Plant response rating, Ragweed ([6]; 125 g ai/ha): 50
- Galium plant response rating [7, 20]: 60
- Plant response rating, Galium ([7]; 62 g ai/ha): 60
- Plant response rating, Galium ([7]; 125 g ai/ha): 80
- Nutsedge, Yellow plant response rating [8, 20]: 0
- Plant response rating, Nutsedge, Yellow ([8]; 62 g ai/ha): 5
- Plant response rating, Nutsedge, Yellow ([8]; 125 g ai/ha): 10
- Ryegrass, Italian plant response rating [9, 20]: 0
- Plant response rating, Ryegrass, Italian ([9]; 62 g ai/ha): 5
- Plant response rating, Ryegrass, Italian ([9]; 125 g ai/ha): 5
- Waterhemp plant response rating [10, 20]: 98
- Plant response rating, Waterhemp ([10]; 62 g ai/ha): 100
- Plant response rating, Waterhemp ([10]; 125 g ai/ha): 100
- Morningglory plant response rating [11, 20]: 65
- Plant response rating, Morningglory ([11]; 62 g ai/ha): 75
- Plant response rating, Morningglory ([11]; 125 g ai/ha): 75
- Wheat plant response rating [12, 20]: 0
- Plant response rating, Wheat ([12]; 62 g ai/ha): 5
- Plant response rating, Wheat ([12]; 125 g ai/ha): 5
- Corn plant response rating (corn (Zea mays) [13]; 16 g ai/ha): 5
- Corn plant response rating (corn (Zea mays) [13]; 31 g ai/ha): 5
- Plant response rating, Corn (corn (Zea mays) [13]; 62 g ai/ha): 5
- Plant response rating, Corn (corn (Zea mays) [13]; 125 g ai/ha): 5
- Crabgrass, Large plant response rating ([14]; 16 g ai/ha): 5
- Crabgrass, Large plant response rating ([14]; 31 g ai/ha): 5
- Plant response rating, Crabgrass, Large ([14]; 62 g ai/ha): 10
- Plant response rating, Crabgrass, Large ([14]; 125 g ai/ha): 20
- Lambsquarters plant response rating [15, 20]: 65
- Plant response rating, Lambsquarters ([15]; 62 g ai/ha): 75
- Plant response rating, Lambsquarters ([15]; 125 g ai/ha): 95
- Soybean plant response rating (soybean (Glycine max); [20]): 10
- Plant response rating, Soybean (soybean (Glycine max); 62 g ai/ha): 40
- Plant response rating, Soybean (soybean (Glycine max); 125 g ai/ha): 50
